Assay results as given in ChEMBL document CHEMBL2440076, “New triarylpyrazoles as broad-spectrum anticancer agents: design, synthesis, and biological evaluation” (Eur J Med Chem, 2013).

Legend:
UO-31 [1] = assay: Growth inhibition of human UO31 cells assessed as cell growth at 10 uM after 48 hrs by sulforhodamine B assay; format: functional; conditions: UO-31, 48 h, read-out: Activity
HL-60(TB) = assay: Growth inhibition of human HL-60(TB) cells assessed as cell growth at 10 uM after 48 hrs by sulforhodamine B assay; format: functional; conditions: HL-60, 48 h, read-out: Activity
OVCAR-8 [2] = assay: Growth inhibition of human OVCAR8 cells assessed as cell growth at 10 uM after 48 hrs by sulforhodamine B assay; format: functional; conditions: OVCAR-8, 48 h, read-out: Activity
OVCAR-8 [3] = assay: Growth inhibition of human OVCAR8 cells after 48 hrs by sulforhodamine B assay; format: functional; conditions: OVCAR-8, 48 h
SF-268 [4] = assay: Growth inhibition of human SF268 cells after 48 hrs by sulforhodamine B assay; format: functional; conditions: SF-268, 48 h
SF-268 [5] = assay: Growth inhibition of human SF268 cells assessed as cell growth at 10 uM after 48 hrs by sulforhodamine B assay; format: functional; conditions: SF-268, 48 h, read-out: Activity
UO-31 [6] = assay: Growth inhibition of human UO31 cells after 48 hrs by sulforhodamine B assay; format: functional; conditions: UO-31, 48 h
NCI-H23 = assay: Growth inhibition of human NCI-H23 cells after 48 hrs by sulforhodamine B assay; format: functional; conditions: NCI-H23, 48 h
MDA-MB-435 = assay: Growth inhibition of human MDA-MB-435 cells after 48 hrs by sulforhodamine B assay; format: functional, cell-based; conditions: MDA-MB-435, 48 h
OVCAR-3 = assay: Growth inhibition of human OVCAR3 cells assessed as cell growth at 10 uM after 48 hrs by sulforhodamine B assay; format: functional; conditions: OVCAR-3, 48 h, read-out: Activity
HCT-15 = assay: Growth inhibition of human HCT15 cells after 48 hrs by sulforhodamine B assay; format: functional; conditions: HCT-15, 48 h
NCI-H460 = assay: Growth inhibition of human NCI-H460 cells after 48 hrs by sulforhodamine B assay; format: functional; conditions: NCI-H460, 48 h
MOLT-4 = assay: Growth inhibition of human MOLT4 cells after 48 hrs by sulforhodamine B assay; format: functional; conditions: MOLT-4, 48 h
786-0 = assay: Growth inhibition of human 786-0 cells after 48 hrs by sulforhodamine B assay; format: functional; conditions: 786-0, 48 h
M14 = assay: Growth inhibition of human M14 cells after 48 hrs by sulforhodamine B assay; format: functional; conditions: M14, 48 h
Malme-3M = assay: Growth inhibition of human MALME-3M cells after 48 hrs by sulforhodamine B assay; format: functional
T47D = assay: Growth inhibition of human T47D cells assessed as cell growth at 10 uM after 48 hrs by sulforhodamine B assay; format: functional; conditions: read-out: Activity
U-251 [7] = assay: Growth inhibition of human U251 cells after 48 hrs by sulforhodamine B assay; format: functional; conditions: U-251, 48 h
[8] = Growth inhibition of human NCI-ADR-RES cells after 48 hrs by sulforhodamine B assay; format: functional
OVCAR-4 = assay: Growth inhibition of human OVCAR4 cells after 48 hrs by sulforhodamine B assay; format: functional; conditions: OVCAR-4, 48 h
HOP-62 [9] = assay: Growth inhibition of human HOP62 cells assessed as cell growth at 10 uM after 48 hrs by sulforhodamine B assay; format: functional; conditions: HOP-62, 48 h, read-out: Activity
CAKI-1 = assay: Growth inhibition of human CAKI-1 cells after 48 hrs by sulforhodamine B assay; format: functional; conditions: CAKI-1, 48 h
[10] = Growth inhibition of human Hs 578T cells assessed as cell growth at 10 uM after 48 hrs by sulforhodamine B assay; format: functional; conditions: read-out: Activity
OVCAR-5 [11] = assay: Growth inhibition of human OVCAR5 cells assessed as cell growth at 10 uM after 48 hrs by sulforhodamine B assay; format: functional; conditions: OVCAR-5, 48 h, read-out: Activity
PC-3 = assay: Growth inhibition of human PC3 cells assessed as cell growth at 10 uM after 48 hrs by sulforhodamine B assay; format: functional; conditions: PC-3, 48 h, read-out: Activity
OVCAR-5 [12] = assay: Growth inhibition of human OVCAR5 cells after 48 hrs by sulforhodamine B assay; format: functional; conditions: OVCAR-5, 48 h
SK-MEL-5 = assay: Growth inhibition of human SK-MEL-5 cells after 48 hrs by sulforhodamine B assay; format: functional; conditions: SK-MEL-5, 48 h
HOP-62 [13] = assay: Growth inhibition of human HOP62 cells after 48 hrs by sulforhodamine B assay; format: functional; conditions: HOP-62, 48 h
COLO 205 = assay: Growth inhibition of human COLO205 cells assessed as cell growth at 10 uM after 48 hrs by sulforhodamine B assay; format: functional; conditions: COLO 205, 48 h, read-out: Activity
SK-OV-3 = assay: Growth inhibition of human SKOV3 cells assessed as cell growth at 10 uM after 48 hrs by sulforhodamine B assay; format: functional; conditions: SK-OV-3, 48 h, read-out: Activity
NCI-H522 = assay: Growth inhibition of human NCI-H522 cells assessed as cell growth at 10 uM after 48 hrs by sulforhodamine B assay; format: functional; conditions: NCI-H522, 48 h, read-out: Activity
CCRF-CEM = assay: Growth inhibition of human CCRF-CEM cells after 48 hrs by sulforhodamine B assay; format: functional
SR = assay: Growth inhibition of human SR cells after 48 hrs by sulforhodamine B assay; format: functional
[14] = Growth inhibition of human NCI-ADR-RES cells assessed as cell growth at 10 uM after 48 hrs by sulforhodamine B assay; format: functional; conditions: read-out: Activity
U-251 [15] = assay: Growth inhibition of human U251 cells assessed as cell growth at 10 uM after 48 hrs by sulforhodamine B assay; format: functional; conditions: U-251, 48 h, read-out: Activity
[16] = read-out: LC50 (the source's name)

COc1cc(-c2nn(-c3cccc(NC(=O)Nc4ccc(Cl)c(C(F)(F)F)c4)c3)cc2-c2ccncc2)ccc1Cl
growth at 10 µM (UO-31 [1]): 11%
growth at 10 µM (HL-60(TB)): -19.8%
growth at 10 µM (OVCAR-8 [2]): -19.9%
GI50 (OVCAR-8 [3]): 1.05 µM
TGI (OVCAR-8 [3]): 5.87 µM
CC50 (OVCAR-8 [3]; [16]): > 32.5 µM
GI50 (SF-268 [4]): 1.46 µM
TGI (SF-268 [4]): 9.14 µM
CC50 (SF-268 [4]; [16]): > 32.5 µM
growth at 10 µM (SF-268 [5]): 13.8%
GI50 (UO-31 [6]): 0.865 µM
TGI (UO-31 [6]): 4.1 µM
CC50 (UO-31 [6]; [16]): > 32.5 µM
GI50 (NCI-H23): 1.31 µM
LC50 (NCI-H23): > 32.5 µM
TGI (NCI-H23): 8.03 µM
GI50 (MDA-MB-435): 0.683 µM
IC50 (MDA-MB-435): 0.68 µM
TGI (MDA-MB-435): 1.69 µM
CC50 (MDA-MB-435; [16]): > 32.5 µM
growth at 10 µM (OVCAR-3): -12.4%
GI50 (HCT-15): 1.23 µM
LC50 (HCT-15): > 32.5 µM
TGI (HCT-15): 7.05 µM
GI50 (NCI-H460): 1.11 µM
LC50 (NCI-H460): > 32.5 µM
TGI (NCI-H460): 4.79 µM
GI50 (MOLT-4): 1.02 µM
TGI (MOLT-4): 7.96 µM
CC50 (MOLT-4; [16]): > 32.5 µM
GI50 (786-0): 1.61 µM
TGI (786-0): 8.02 µM
CC50 (786-0; [16]): > 32.5 µM
GI50 (M14): 1.08 µM
LC50 (concentration killing 50% of cells) (M14): 19.1 µM
TGI (M14): 3.71 µM
GI50 (Malme-3M): 0.838 µM
LC50 (concentration killing 50% of starting cells) (Malme-3M): > 32.5 µM
TGI (Malme-3M): 2.35 µM
growth at 10 µM (T47D): 0.62%
GI50 (U-251 [7]): 0.985 µM
LC50 (concentration killing 50% of cells) (U-251 [7]): 24.7 µM
TGI (U-251 [7]): 4.18 µM
GI50 [8]: 1.04 µM
TGI [8]: 7.99 µM
CC50 [8, 16]: > 32.5 µM
GI50 (OVCAR-4): 1.29 µM
LC50 (concentration killing 50% of cells) (OVCAR-4): > 32.5 µM
TGI (OVCAR-4): 25.6 µM
growth at 10 µM (HOP-62 [9]): 5.4%
GI50 (CAKI-1): 0.992 µM
TGI (CAKI-1): 4.72 µM
CC50 (CAKI-1; [16]): > 32.5 µM
growth at 10 µM [10]: 2.21%
growth at 10 µM (OVCAR-5 [11]): 35.8%
growth at 10 µM (PC-3): -19.1%
GI50 (OVCAR-5 [12]): 3.09 µM
LC50 (concentration killing 50% of cells) (OVCAR-5 [12]): > 32.5 µM
TGI (OVCAR-5 [12]): 11 µM
GI50 (SK-MEL-5): 0.818 µM
LC50 (concentration killing 50% of cells) (SK-MEL-5): 10.4 µM
TGI (SK-MEL-5): 2.89 µM
GI50 (HOP-62 [13]): 1.31 µM
TGI (HOP-62 [13]): 6.49 µM
CC50 (HOP-62 [13]; [16]): 31 µM
growth at 10 µM (COLO 205): -91.6%
growth at 10 µM (SK-OV-3): 0.43%
growth at 10 µM (NCI-H522): -13.9%
GI50 (CCRF-CEM): 0.98 µM
LC50 (CCRF-CEM): > 32.5 µM
TGI (CCRF-CEM): > 32.5 µM
GI50 (SR): 0.884 µM
TGI (SR): 2.48 µM
CC50 (SR; [16]): > 32.5 µM
growth at 10 µM [14]: -0.86%
growth at 10 µM (U-251 [15]): -20.9%
